Legend:
Assay in all cases: Standardized radiometric kinase assays, percentage of activity at 0.5 μM;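 note: Read-out is ³³P-labelled substrate protein phosphorylated by each kinase, captured on filters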
[1] = biological target: each individual kinase of the panel (Homo sapiens, UniProt O00141)
[2] = biological target: each individual kinase of the panel (Homo sapiens, UniProt O15264)
[3] = biological target: each individual kinase of the panel (Homo sapiens, UniProt O94806)
[4] = biological target: each individual kinase of the panel (Homo sapiens, UniProt O96013)
[5] = biological target: each individual kinase of the panel (Homo sapiens, UniProt P00519, T315I)
[6] = biological target: each individual kinase of the panel (Homo sapiens, UniProt P05129)
[7] = biological target: each individual kinase of the panel (Homo sapiens, UniProt P10721, D816V)
[8] = biological target: each individual kinase of the panel (Homo sapiens, UniProt P22607)
[9] = biological target: each individual kinase of the panel (Homo sapiens, UniProt P42685)
[10] = biological target: each individual kinase of the panel (Homo sapiens, UniProt P45983)
[11] = biological target: each individual kinase of the panel (Homo sapiens, UniProt P49840)
[12] = biological target: each individual kinase of the panel (Homo sapiens, UniProt P51617)
[13] = biological target: each individual kinase of the panel (Homo sapiens, UniProt P53355)
[14] = biological target: each individual kinase of the panel (Homo sapiens, UniProt P53778)
[15] = biological target: each individual kinase of the panel (Homo sapiens, UniProt P54753)
[16] = biological target: each individual kinase of the panel (Homo sapiens, UniProt Q00526)
[17] = biological target: each individual kinase of the panel (Homo sapiens, UniProt Q12851)
[18] = biological target: each individual kinase of the panel (Homo sapiens, UniProt Q13188)
[19] = biological target: each individual kinase of the panel (Homo sapiens, UniProt Q13555)
[20] = biological target: each individual kinase of the panel (Homo sapiens, UniProt Q16513)
[21] = biological target: each individual kinase of the panel (Homo sapiens, UniProt Q16644)
[22] = biological target: each individual kinase of the panel (Homo sapiens, UniProt Q86UE8)
[23] = biological target: each individual kinase of the panel (Homo sapiens, UniProt Q86Y07)
[24] = biological target: each individual kinase of the panel (Homo sapiens, UniProt Q86Z02)
[25] = biological target: each individual kinase of the panel (Homo sapiens, UniProt Q8IWQ3)
[26] = biological target: each individual kinase of the panel (Homo sapiens, UniProt Q8N4C8)
[27] = biological target: each individual kinase of the panel (Homo sapiens, UniProt Q96RG2)
[28] = biological target: each individual kinase of the panel (Homo sapiens, UniProt Q9BYP7)
[29] = biological target: each individual kinase of the panel (Homo sapiens, UniProt Q9H2K8)
[30] = biological target: each individual kinase of the panel (Homo sapiens, UniProt Q9UIK4)
[31] = biological target: each individual kinase of the panel (Mus musculus, UniProt P63085)
Sequence of each individual kinase of the panel (Mus musculus, UniProt P63085) (P63085 2-358 limits assumed): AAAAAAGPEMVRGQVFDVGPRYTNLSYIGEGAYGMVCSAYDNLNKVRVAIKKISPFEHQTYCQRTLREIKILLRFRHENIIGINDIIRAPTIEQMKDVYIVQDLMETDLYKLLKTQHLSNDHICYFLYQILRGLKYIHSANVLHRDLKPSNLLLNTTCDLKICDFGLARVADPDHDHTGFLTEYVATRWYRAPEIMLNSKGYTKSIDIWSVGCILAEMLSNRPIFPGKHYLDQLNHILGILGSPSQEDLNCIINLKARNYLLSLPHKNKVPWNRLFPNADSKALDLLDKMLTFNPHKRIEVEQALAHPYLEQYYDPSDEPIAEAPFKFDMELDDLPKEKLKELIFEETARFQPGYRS

Sequence of each individual kinase of the panel (Homo sapiens, UniProt P49840) (P49840 2-483 limits assumed): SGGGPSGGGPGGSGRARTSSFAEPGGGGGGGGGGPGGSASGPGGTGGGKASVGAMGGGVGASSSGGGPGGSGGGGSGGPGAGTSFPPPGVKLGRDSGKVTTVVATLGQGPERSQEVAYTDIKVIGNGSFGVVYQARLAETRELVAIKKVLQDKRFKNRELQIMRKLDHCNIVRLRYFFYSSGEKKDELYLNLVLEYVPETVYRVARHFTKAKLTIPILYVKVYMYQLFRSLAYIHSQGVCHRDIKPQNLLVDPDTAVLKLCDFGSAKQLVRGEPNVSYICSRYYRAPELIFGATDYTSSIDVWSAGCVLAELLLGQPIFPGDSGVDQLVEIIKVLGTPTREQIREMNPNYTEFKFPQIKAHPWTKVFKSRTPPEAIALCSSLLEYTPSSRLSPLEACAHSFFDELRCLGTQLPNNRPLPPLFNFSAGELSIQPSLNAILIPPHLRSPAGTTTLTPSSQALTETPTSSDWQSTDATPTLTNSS
Sequence of each individual kinase of the panel (Homo sapiens, UniProt P22607) (P22607 23-806 limits assumed): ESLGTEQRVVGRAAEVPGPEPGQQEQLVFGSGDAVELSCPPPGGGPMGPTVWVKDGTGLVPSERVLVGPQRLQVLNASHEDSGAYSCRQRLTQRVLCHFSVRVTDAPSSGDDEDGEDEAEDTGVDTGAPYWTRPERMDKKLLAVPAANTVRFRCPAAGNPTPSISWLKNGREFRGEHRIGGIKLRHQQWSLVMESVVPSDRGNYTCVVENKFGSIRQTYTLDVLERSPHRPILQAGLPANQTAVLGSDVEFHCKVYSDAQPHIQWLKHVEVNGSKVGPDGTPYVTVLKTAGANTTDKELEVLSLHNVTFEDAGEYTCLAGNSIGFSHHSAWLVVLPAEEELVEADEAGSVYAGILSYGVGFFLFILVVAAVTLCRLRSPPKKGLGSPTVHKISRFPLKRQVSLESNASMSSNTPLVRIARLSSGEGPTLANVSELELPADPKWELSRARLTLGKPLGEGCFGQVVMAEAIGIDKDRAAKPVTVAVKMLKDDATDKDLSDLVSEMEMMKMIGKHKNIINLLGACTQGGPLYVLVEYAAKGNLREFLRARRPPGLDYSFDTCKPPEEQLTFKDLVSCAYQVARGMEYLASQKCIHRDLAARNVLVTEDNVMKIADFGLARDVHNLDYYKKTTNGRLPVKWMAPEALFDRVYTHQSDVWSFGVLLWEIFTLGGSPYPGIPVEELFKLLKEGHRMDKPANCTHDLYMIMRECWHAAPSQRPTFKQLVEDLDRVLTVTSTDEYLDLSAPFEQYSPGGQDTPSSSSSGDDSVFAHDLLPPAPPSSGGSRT
Sequence of each individual kinase of the panel (Homo sapiens, UniProt P10721, D816V) (P10721 26-976 D816V limits assumed): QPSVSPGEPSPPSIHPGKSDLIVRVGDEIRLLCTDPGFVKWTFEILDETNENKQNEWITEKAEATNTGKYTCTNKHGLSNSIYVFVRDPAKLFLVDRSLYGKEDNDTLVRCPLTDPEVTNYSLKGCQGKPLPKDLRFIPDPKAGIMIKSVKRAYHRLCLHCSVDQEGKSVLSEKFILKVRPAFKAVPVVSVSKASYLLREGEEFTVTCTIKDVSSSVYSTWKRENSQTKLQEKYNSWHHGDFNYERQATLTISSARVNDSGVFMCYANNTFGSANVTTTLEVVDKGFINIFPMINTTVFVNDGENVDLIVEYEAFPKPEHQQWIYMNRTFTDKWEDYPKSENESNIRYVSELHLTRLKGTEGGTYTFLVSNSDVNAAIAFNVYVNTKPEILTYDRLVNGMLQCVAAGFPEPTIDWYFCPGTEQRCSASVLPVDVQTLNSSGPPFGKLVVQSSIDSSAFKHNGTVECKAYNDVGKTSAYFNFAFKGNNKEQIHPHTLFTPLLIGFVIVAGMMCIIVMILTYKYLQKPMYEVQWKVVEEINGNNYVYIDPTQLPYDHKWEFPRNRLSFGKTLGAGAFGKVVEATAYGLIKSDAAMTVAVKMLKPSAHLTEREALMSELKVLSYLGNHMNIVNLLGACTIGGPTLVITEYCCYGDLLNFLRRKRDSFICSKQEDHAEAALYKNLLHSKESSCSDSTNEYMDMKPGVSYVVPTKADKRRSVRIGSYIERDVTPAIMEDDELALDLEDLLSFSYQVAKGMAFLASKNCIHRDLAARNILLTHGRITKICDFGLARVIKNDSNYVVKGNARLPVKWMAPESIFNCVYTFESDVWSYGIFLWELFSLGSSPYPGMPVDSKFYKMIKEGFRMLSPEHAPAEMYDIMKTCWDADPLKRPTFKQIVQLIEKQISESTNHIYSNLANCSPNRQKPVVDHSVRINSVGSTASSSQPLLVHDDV
Sequence of each individual kinase of the panel (Homo sapiens, UniProt P54753) (P54753 34-998 limits assumed): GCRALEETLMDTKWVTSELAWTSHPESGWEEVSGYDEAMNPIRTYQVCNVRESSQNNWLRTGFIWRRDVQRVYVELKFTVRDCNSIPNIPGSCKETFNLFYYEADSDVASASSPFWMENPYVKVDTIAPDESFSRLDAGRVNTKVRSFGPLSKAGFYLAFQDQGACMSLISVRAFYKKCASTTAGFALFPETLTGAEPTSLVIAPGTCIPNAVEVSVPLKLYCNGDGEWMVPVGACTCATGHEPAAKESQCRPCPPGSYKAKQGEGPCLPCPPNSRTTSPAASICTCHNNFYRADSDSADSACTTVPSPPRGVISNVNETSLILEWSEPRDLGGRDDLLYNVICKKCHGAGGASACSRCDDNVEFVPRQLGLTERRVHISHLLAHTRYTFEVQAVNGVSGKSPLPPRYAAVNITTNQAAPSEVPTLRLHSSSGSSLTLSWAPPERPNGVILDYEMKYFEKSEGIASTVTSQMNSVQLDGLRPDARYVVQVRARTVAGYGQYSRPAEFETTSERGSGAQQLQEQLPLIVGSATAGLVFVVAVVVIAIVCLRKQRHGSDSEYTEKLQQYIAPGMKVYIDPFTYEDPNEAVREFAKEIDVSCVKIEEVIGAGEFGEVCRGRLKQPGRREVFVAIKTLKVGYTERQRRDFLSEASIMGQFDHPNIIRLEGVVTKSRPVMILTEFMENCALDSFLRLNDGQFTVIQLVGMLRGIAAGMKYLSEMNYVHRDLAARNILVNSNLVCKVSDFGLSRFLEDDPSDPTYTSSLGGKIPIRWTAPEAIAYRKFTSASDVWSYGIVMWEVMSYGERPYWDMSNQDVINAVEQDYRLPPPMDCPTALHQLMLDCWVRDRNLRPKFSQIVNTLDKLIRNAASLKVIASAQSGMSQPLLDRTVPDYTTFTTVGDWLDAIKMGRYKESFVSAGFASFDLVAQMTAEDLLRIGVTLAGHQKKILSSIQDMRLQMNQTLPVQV

SGK percentage of activity [1]: −1% | p38-delta percentage of activity [2]: −1% | PRKCN percentage of activity [3]: 2% | PAK4 percentage of activity [4]: −12% | ABL1(T3151) percentage of activity [5]: −7% | PRKCG percentage of activity [6]: 0% | cKit(D816V) percentage of activity [7]: 2% | FGFR3 percentage of activity [8]: −2% | FRK percentage of activity [9]: 3% | JNK1A1 percentage of activity [10]: −9% | GSK3A percentage of activity [11]: 51% | IRAK1 percentage of activity [12]: 4% | DAPK1 percentage of activity [13]: 58% | p38-gamma percentage of activity [14]: 12% | EPHB3 percentage of activity [15]: −36% | CDK3/cyclinE percentage of activity [16]: −19% | GCK percentage of activity [17]: 1% | MST2 percentage of activity [18]: −6% | CAMK2G percentage of activity [19]: 36% | PRK2 percentage of activity [20]: 3% | MAPKAPK3 percentage of activity [21]: −8% | TLK2 percentage of activity [22]: 8% | VRK2 percentage of activity [23]: −3% | HIPK1 percentage of activity [24]: 90% | BRSK2 percentage of activity [25]: 7% | MINK percentage of activity [26]: −13% | PASK percentage of activity [27]: 87% | WNK3 percentage of activity [28]: −17% | TAO3 percentage of activity [29]: 22% | DAPK2 percentage of activity [30]: 91% | MAPK2(m) percentage of activity [31]: −6%
SMILES: C#Cc1cccc(Nc2nc3cc(C(=O)O)ccc3c3cncnc23)c1 [drawing 1135]

— patent US8168651B2, “Protein kinase modulators” (Cylene Pharmaceuticals, Inc., priority 2008, dated 2012)
